What was measured:
[1] = system: HR^+ breast cancer cell lines; conditions: several HR^+ breast cancer cell lines; cited from earlier work
[2] = system: gene expression in MDA-MB468 cells; test: Gene expression profiling via RNA-seq (DESeq2, linear model), MDA-MB468; assay type: cell-based; conditions: four hours, JQ1 125 nM, Compound 1 25 nM
Protocol: (§1) In addition, we compared the ability of JQ1 alone, Compound 1 alone, and a combination of JQ1 and Compound 1 to modify expression of various genes in two breast cancer cell lines. Two triple-negative breast cancer cell lines (HCC70 and MDA-MB468) were tested. The cell lines were treated with JQ1, Compound 1, the JQ1/Compound 1 combination, or DMSO for four hours, after which gene expression profiling via RNA-seq was performed. JQ1 was administered to the cells at a 125 nM final concentration in both single agent and combination experiments. Compound 1 was administered to the cells at a 25 nM final concentration in both single agent and combination experiments. Each experiment was performed in triplicate. One replicate of MDA-MB-468 treated with single-agent JQ1 was excluded from further analysis due to quality.
(§2) We employed DESeq2 (Love et al., Genome Biology, 15(12):550, 2014) to identify changes in gene expression due to the JQ1, Compound 1, and JQ1-Compound 1 combination treatment compared to the control DMSO condition based on the RNA-seq data. Genes resulting in a p-value below 0.01 and an absolute logFoldChange above 0.5 were considered to be differentially expressed. […] The same is true for 1459 of 2414 genes in MDA-MB468.
(§3) To identify the genes whose expression is impacted synergistically by the drug combination, we modeled the effect of each drug treatment on expression using a linear model. The expression of each gene after the combination treatment can be thought of as the combined impact of Compound 1, JQ1, and any synergistic interaction between the drug treatments on baseline gene expression. A linear model used to describe this relationship could therefore be represented as:
(§4) Gene Expression after combination treatment=Baseline Expression+Compound 1 effect+JQ1 effect+Combination effect (Synergistic Impact)
(§5) By fitting the expression data for each gene using this model, we were able to evaluate the effect of each treatment, and identify cases where a synergistic interaction between Compound 1 and JQ1 impacts final gene expression. After fitting the linear model to each gene, the weight and p-value of each term can be evaluated. The combination term's weight signifies the mean change resulting from a synergetic impact on expression, with a negative weight indicating synergistic downregulation. Its associated p-value represents the probability that the combination term is not relevant to final gene expression. Using this approach, we identified 1806 genes in HCC70 and 2205 genes in MDA-MB468 whose expression change in the combination treatment was synergistic and whose associated p-value was less than a threshold cutoff of 0.01. The expression of these synergistic genes could not be explained by an additive effect of Compound 1 and JQ1 alone.

[3] = system: gene expression in HCC70 cells; test: Gene expression profiling via RNA-seq (DESeq2, linear model), HCC70; assay type: cell-based; conditions: four hours, JQ1 125 nM, Compound 1 25 nM
Protocol: as §1, §2, §3, §4, §5

Row | SMILES | In vitro synergy with fulvestrant [1] | Average Expression (TPM) FOXC1 ([2]; DMSO 33.731) | Average Expression (TPM) GATA3 ([2]; DMSO 34.244) | Average Expression (TPM) TGIF1 ([2]; DMSO 145.88) | Average Expression (TPM) GATA3 ([3]; DMSO 32.685) | Average Expression (TPM) FOXC1 ([3]; DMSO 40.481) | Average Expression (TPM) TGIF1 ([3]; DMSO 62.523)
1 | CN(C)C/C=C/C(=O)Nc1ccc(C(=O)Nc2cccc(Nc3ncc(Cl)c(-c4c[nH]c5ccccc45)n3)c2)cc1 [THZ-1] | synergy | – | – | – | – | – | –
2 | Cc1sc2c(c1C)C(c1ccc(Cl)cc1)=N[C@@H](CC(=O)OC(C)(C)C)c1nnc(C)n1-2 [JQ1, reference compound] | – | 37.112 TPM | 32.491 TPM | 151.60 TPM | 29.574 TPM | 40.529 TPM | 52.509 TPM

— patent US20200113902A1, “COMPOSITIONS AND METHODS FOR TREATING CANCERS WITH COVALENT INHIBITORS OF CYCLIN-DEPENDENT KINASE 7 (CDK7)” (Syros Pharmaceuticals, Inc., priority 2017, published 2020)
